Test results taken from patent publication US20240360179A1, “STAPLED PEPTIDES AND METHODS THEREOF” (FOG PHARMACEUTICALS, INC., priority 2021, published 2024).

System: COLO320DM cells
Assay: COLO320DM proliferation assay (CellTiter-Glo)
Type: cell-based, human
Details: read-out: COLO320DM Proliferation Abs IC50
Method: COLO320DM proliferation assay IC50: In some embodiments, inhibition of cell proliferation by provided technologies were assessed using cell lines related to or from certain conditions, disorders or diseases. In some embodiments, cell proliferation was assessed in COLO320DM cells. In some embodiments, assessment was performed using the following procedure: On Day 1, cultured COLO320DM cells in a T75 flask were trypsinized in 3 mL of 0.250% trypsin/EDTA for 5 min and quenched with 10 mL RPMI-1640+4% HI FBS assay media. The cells were spun down at 1200 rpm for 5 min, the cell pellet collected and re-suspended at 5000 cells/mL in assay media. Using a Combi liquid handler, cells were dispensed (50 uL, 250 cells/well) into three 384 well plates. Plates were incubated at 37° C., 5% CO2 for 18-22 h. On day 2, compounds were added. A liquid handling system was used to prepare the compound dilution and dispense compound into assay plates. The compounds were serially diluted 1/2 in 90% DMSO to create a 7 point dose curve. From compound plate, 100 nL of compound were dispensed directly into wells of the assay plates to create a dose curve starting at 20 uM and ending at 313 nM. Assay plates were incubated at 37° C., 5% CO2 for 96 h. On day 6, assay plates were removed from the incubator and allowed to sit at room temperature for 30 min. Using a liquid handler, 20 uL of CellTiter Glo reagent was added to each well. The assay plates were shaken for 2 min and allowed to sit on the bench for 10-15 minutes. The assay plates were read using the CellTiter Glo protocol on a GloMax microplate reader, and the data analyzed using GraphPad Prism. Activities of various agents, including various stapled peptides in Table E2, were confirmed.
In some embodiments, an assessment was performed as follows. On day 0, cells were seeded in cell culture media (RPMI1640, 4% FBS) in a 96-well plate at desired density, typically at 1000 cells/well. On day 1, 10 mM agent stock solution (in DMSO) was first serially diluted into DMSO at 1:2 ratio, followed by diluting with cell culture media at two times of the final concentrations. Finally, agent-containing media were introduced to cell culture wells already having the same volume of cell culture media. Cells were incubated with agents for desired days before lysed for CellTiter-Glo® Luminescent Cell Viability Assay according to the manufacture instruction (Promega, G7570). Luminescent signal was obtained from a microplate reader (GloMax, Promega). Cell viability data was expressed as % relative to DMSO control wells.
Proliferation Assay. In some embodiments, various proliferation assays are utilized to characterize or assess provided technologies. In some embodiments, on day 0, cells were seeded in cell culture media in a 96-well plate at desired density, typically at 1000 cells/well. On day 1, 10 mM compound stock solution was first serially diluted into DMSO, followed by diluting with cell culture media at two times of the final concentrations. Finally, compound-containing media were introduced to cell culture wells already having the same volume of cell culture media. Cells were incubated with compounds for desired days before lysed for CTG according to the manufacture instruction (G7570, Promega). Luminescent signal was obtained from a microplate reader (GloMax, Promega).

Molecule: Ac-PL3-Asp-DipA-B5-Asp-3COOHF-Ala-Ala-Phe-Lys*3-PyrS2-3Thi-34ClF-GlnR*3-[mPEG37]-Lys-NH2 [I-1702]
- IC50: ≤ 10 µM

Molecule: Ac-PL3-Asp-Ile-B5-Asp-3COOHF-Aib-Ala-Phe-Lys*3-PyrS2-2FF-34ClF-GlnR*3-NH2 [I-1539]
- IC50: ≤ 10 µM

Molecule: Ac-PL3-Asp-Chg-B5-Asp-3COOHF-Aib-Ala-Phe-Lys*3-PyrS2-2ClF-34ClF-GlnR*3-NH2 [I-1505]
- IC50: ≤ 10 µM

Molecule: Ac-PL3-Asp-Npg-B5-Asp-3COOHF-Aib-Ala-Phe-Lys*3-PyrS2-3Thi-BztA-hGlnR*3-NH2 [I-786]
- IC50: ≤ 10 µM

Molecule: Ac-PL3-Asp-DipA-B5-Asp-3COOHF-CyLeu-Ala-Phe-Lys*3-PyrS2-3Thi-34ClF-GlnR*3-NH2 [I-1117]
- IC50: ≤ 10 µM

Molecule: Ac-PL3-Asp-DipA-B5-Asp-3COOHF-Ala-Ala-Phe-Lys*3-PyrS2-3Thi-34ClF-GlnR*3-[mPEG8]-Lys-NH2 [I-1701]
- IC50: ≤ 10 µM

Molecule: Ac-PL3-Asp-Ile-B5-Asp-3COOHF-CyLeu-Ala-Phe-Lys*3-PyrS2-Phe-34ClF-GlnR*3-NH2 [I-1052]
- IC50: ≤ 10 µM

Molecule: Ac-PL3-Asp-Chg-B5-Asp-3COOHF-Aib-Ala-Phe-Lys*3-PyrS2-3Thi-34ClF-GlnR*3-NH2 [I-1037]
- IC50: ≤ 10 µM

Molecule: Ac-PL3-Asp-Ile-B5-Asp-3COOHF-Ala-Ala-Phe-sCH2S*3-PyrS2-Phe-34ClF-TriAzLys*3-NH2 [I-1866]
- IC50: 10 to 20 µM

Molecule: Ac-PL3-Asp-DipA-B5-Asp-3COOHF-CyLeu-Ala-Phe-Lys*3-PyrS2-2F3MeF-34ClF-GlnR*3-Val-NH2 [I-1773]
- IC50: ≤ 10 µM

Molecule: Ac-PL3-Asp-Npg-B5-Asp-3COOHF-Aib-Ala-Phe-Lys*3-PyrS2-3Thi-BztA-GlnR*3-Ala-Val-Pro-Thr-Leu-Lys-NH2 [I-812]
- IC50: ≤ 10 µM

Molecule: Ac-PL3-Asp-Ile-B5-Asp-3COOHF-Aib-Ala-Phe-TriAzOrn*3-PyrS2-Phe-34ClF-sCH2S*3-NH2 [I-1860]
- IC50: ≤ 10 µM

Molecule: Ac-PL3-Asp-Cha-B5-Asp-3COOHF-Ala-Ala-Phe-Lys*3-PyrS2-2ClF-BztA-GlnR*3-NH2 [I-1528]
- IC50: ≤ 10 µM

Molecule: CC(=O)N1CCC[C@]12CC=CCCCC1(CCCC=CCCCOC(=O)N3CC[C@@]4(C3)NC(=O)[C@H](CCCCNC(=O)CC[C@@H](C(=O)N[C@@H](C)C(N)=O)NC(=O)[C@H](Cc3csc5ccccc35)NC(=O)[C@H](Cc3ccsc3)NC4=O)NC(=O)[C@H](Cc3ccccc3)NC(=O)[C@H](C)NC(=O)C(C)(C)NC(=O)[C@H](Cc3cccc(C(=O)O)c3)NC(=O)[C@H](CC(=O)O)NC1=O)NC(=O)[C@H](C)NC(=O)[C@H](CC(=O)O)NC2=O (relative stereo) [I-304, Ac-PL3-Asp-Ala-B5-Asp-3COOHF-Aib-Ala-Phe-Lys*3-PyrS2-3Thi-BztA-GlnR*3-Ala-NH2]
- IC50: ≤ 10 µM

Molecule: Ac-PL3-Asp-Npg-B5-Asp-3COOHF-Aib-Ala-Phe-Lys*3-PyrS2-Phe-34ClF-GlnR*3-NH2 [I-871]
- IC50: ≤ 10 µM

Molecule: Ac-PL3-Asp-DipA-B5-Asp-3COOHF-Ala-Ala-Phe-Lys*3-PyrS2-3Thi-34ClF-GlnR*3-Ala-Ala-[Ac-dPEG2]-Lys-NH2-NH2 [I-1787]
- IC50: ≤ 10 µM

Molecule: CC(=O)N1CCC[C@]12CC=CCCCC1(CCCC=CCCCOC(=O)N3CC[C@@]4(C3)NC(=O)[C@H](CCCCNC(=O)CC[C@@H](C(=O)N[C@@H](C)C(N)=O)NC(=O)[C@H](Cc3csc5ccccc35)NC(=O)[C@H](Cc3ccncc3)NC4=O)NC(=O)[C@H](Cc3ccccc3)NC(=O)[C@H](C)NC(=O)C(C)(C)NC(=O)[C@H](Cc3cccc(C(=O)O)c3)NC(=O)[C@H](CC(=O)O)NC1=O)NC(=O)[C@H](CC(C)(C)C)NC(=O)[C@H](CC(=O)O)NC2=O (relative stereo) [I-301, Ac-PL3-Asp-Npg-B5-Asp-3COOHF-Aib-Ala-Phe-Lys*3-PyrS2-4PyrA-BztA-GlnR*3-Ala-NH2]
- IC50: > 20 µM

Molecule: Ac-PL3-Asp-Npg-B5-Asp-3COOHF-Aib-Ala-Phe-Lys*3-PyrS2-3Thi-BztA-GlnR*3-[mPEG16]Lys-NH2 [I-1183]
- IC50: ≤ 10 µM

Molecule: Ac-PL3-Asp-Npg-B5-Asp-3COOHF-Aib-Ala-Phe-Lys*3-PyrS2-[2PyAc]2NH2F-BztA-GlnR*3-Ala-NH2 [I-1740]
- IC50: ≤ 10 µM
